Reference: the NIST ThermoML archive (doi:10.1016/j.fluid.2007.04.030)

Test: xn = mol fraction of the nth substance listed
Settings: 101 kPa, Liquid

COc1cc2c(cc1O)CC1c3c(cc(O)c(OC)c3-2)CCN1C (stereo not drawn) [boldine] + CC(C)O
mass density [kg/m3]
Settings	x1 = 0.00187	x1 = 0.00371	x1 = 0.00563	x1 = 0.00735	x1 = 0.00957	x1 = 0.01158	x1 = 0.01364
283.15 K	796.84	800.29	803.77	807.03	810.42	814.44	818.2
288.15 K	792.75	796.21	799.68	802.94	806.37	810.34	814.09
293.15 K	788.61	792.06	795.53	798.79	802.25	806.19	809.91
298.15 K	784.39	787.84	791.32	794.57	798.05	801.97	805.66
303.15 K	780.11	783.56	787.04	790.29	793.78	797.69	801.36
308.15 K	775.77	779.22	782.69	785.94	789.45	793.35	797.01
313.15 K	771.34	774.79	778.25	781.51	785.03	788.91	792.59
318.15 K	766.8	770.26	773.72	776.98	780.51	784.38	788.09
323.15 K	762.17	765.62	769.08	772.35	775.88	779.76	783.56
328.15 K	757.42	760.87	764.34	767.61	771.14	775.02	778.85
333.15 K	752.55	756.01	759.48	762.75	766.27	770.17	773.99

COc1cc2c(cc1O)CC1c3c(cc(O)c(OC)c3-2)CCN1C (stereo not drawn) [boldine] + CCCCCCCCO
mass density [kg/m3]
Settings	x1 = 0.00398	x1 = 0.00806	x1 = 0.01216
283.15 K	835.34	838.57	842.06
288.15 K	831.91	835.14	838.62
293.15 K	828.46	831.68	835.16
298.15 K	825	828.21	831.68
303.15 K	821.52	824.72	828.18
308.15 K	818.01	821.21	824.66
313.15 K	814.49	817.68	821.12
318.15 K	810.93	814.12	817.55
323.15 K	807.34	810.52	813.96
328.15 K	803.73	806.9	810.33
333.15 K	800.08	803.24	806.66

COc1cc2c(cc1O)CC1c3c(cc(O)c(OC)c3-2)CCN1C (stereo not drawn) [boldine] + CCCCCCO
mass density [kg/m3]
Settings	x1 = 0.00308	x1 = 0.00633	x1 = 0.00958
283.15 K	831.02	834.31	837.66
288.15 K	827.44	830.73	834.07
293.15 K	823.83	827.12	830.46
298.15 K	820.21	823.49	826.82
303.15 K	816.56	819.84	823.16
308.15 K	812.88	816.16	819.48
313.15 K	809.17	812.44	815.76
318.15 K	805.43	808.7	812.01
323.15 K	801.65	804.91	808.22
328.15 K	797.83	801.09	804.39
333.15 K	793.97	797.22	800.51

COc1cc2c(cc1O)CC1c3c(cc(O)c(OC)c3-2)CCN1C (stereo not drawn) [boldine] + CCCCCO
mass density [kg/m3]
Settings	x1 = 0.00272	x1 = 0.00547	x1 = 0.00826
283.15 K	825.74	829.04	832.39
288.15 K	822.11	825.4	828.75
293.15 K	818.44	821.73	825.07
298.15 K	814.76	818.04	821.37
303.15 K	811.05	814.33	817.65
308.15 K	807.31	810.58	813.91
313.15 K	803.53	806.8	810.12
318.15 K	799.72	802.99	806.31
323.15 K	795.87	799.13	802.45
328.15 K	791.97	795.23	798.54
333.15 K	788.02	791.28	794.59

COc1cc2c(cc1O)CC1c3c(cc(O)c(OC)c3-2)CCN1C (stereo not drawn) [boldine] + CCCCO
mass density [kg/m3]
Settings	x1 = 0.00228	x1 = 0.00461	x1 = 0.00696	x1 = 0.00936	x1 = 0.01178	x1 = 0.01427	x1 = 0.01678
283.15 K	820.49	823.85	827.2	830.57	833.94	837.36	840.79
288.15 K	816.73	820.08	823.43	826.79	830.16	833.57	837
293.15 K	812.93	816.28	819.62	822.98	826.35	829.75	833.18
298.15 K	809.11	812.45	815.8	819.15	822.52	825.92	829.34
303.15 K	805.26	808.6	811.94	815.29	818.66	822.06	825.48
308.15 K	801.39	804.72	808.06	811.4	814.77	818.16	821.58
313.15 K	797.47	800.81	804.14	807.48	810.84	814.23	817.64
318.15 K	793.52	796.85	800.17	803.52	806.87	810.25	813.67
323.15 K	789.52	792.84	796.17	799.51	802.86	806.23	809.66
328.15 K	785.47	788.79	792.11	795.45	798.79	802.17	805.59
333.15 K	781.35	784.67	787.99	791.32	794.67	798.05	801.46

COc1cc2c(cc1O)CC1c3c(cc(O)c(OC)c3-2)CCN1C (stereo not drawn) [boldine] + CCCO
mass density [kg/m3]
Settings	x1 = 0.00185	x1 = 0.00374	x1 = 0.00565	x1 = 0.0076	x1 = 0.00957	x1 = 0.01158	x1 = 0.01361
283.15 K	814.99	818.36	821.77	825.23	828.61	832.08	835.59
288.15 K	811.04	814.41	817.81	821.26	824.65	828.12	831.61
293.15 K	807.05	810.42	813.82	817.26	820.65	824.12	827.61
298.15 K	803.04	806.4	809.8	813.24	816.64	820.1	823.59
303.15 K	799	802.35	805.75	809.2	812.59	816.05	819.54
308.15 K	794.92	798.27	801.67	805.12	808.5	811.96	815.45
313.15 K	790.81	794.14	797.55	800.98	804.37	807.83	811.31
318.15 K	786.65	789.98	793.39	796.82	800.21	803.65	807.13
323.15 K	782.43	785.77	789.17	792.6	795.99	799.42	802.91
328.15 K	778.16	781.5	784.89	788.33	791.71	795.16	798.63
333.15 K	773.81	777.16	780.54	783.99	787.37	790.82	794.3

CCCCO [butan-1-ol] + COc1cc2c(cc1O)CC1c3c(cc(O)c(OC)c3-2)CCN1C
x2 = 0
Settings	mass density [kg/m3]
283.15 K	817.15
288.15 K	813.38
293.15 K	809.59
298.15 K	805.77
303.15 K	801.92
308.15 K	798.05
313.15 K	794.14
318.15 K	790.19
323.15 K	786.19
328.15 K	782.14
333.15 K	778.03

CCO [ethanol] + COc1cc2c(cc1O)CC1c3c(cc(O)c(OC)c3-2)CCN1C
x2 = 0
Settings	mass density [kg/m3]
283.15 K	797.96
288.15 K	793.71
293.15 K	789.44
298.15 K	785.15
303.15 K	780.83
308.15 K	776.48
313.15 K	772.09
318.15 K	767.65
323.15 K	763.17
328.15 K	758.63
333.15 K	754.01

CCCCCCO [hexan-1-ol] + COc1cc2c(cc1O)CC1c3c(cc(O)c(OC)c3-2)CCN1C
x2 = 0
Settings	mass density [kg/m3]
283.15 K	827.82
288.15 K	824.25
293.15 K	820.65
298.15 K	817.03
303.15 K	813.39
308.15 K	809.71
313.15 K	806
318.15 K	802.27
323.15 K	798.49
328.15 K	794.67
333.15 K	790.8

CO [methanol] + COc1cc2c(cc1O)CC1c3c(cc(O)c(OC)c3-2)CCN1C
x2 = 0
Settings	mass density [kg/m3]
283.15 K	801.08
288.15 K	796.41
293.15 K	791.71
298.15 K	787.01
303.15 K	782.29
308.15 K	777.55
313.15 K	772.78
318.15 K	767.97
323.15 K	763.12
328.15 K	758.23
333.15 K	753.29

CCCCCCCCO [octan-1-ol] + COc1cc2c(cc1O)CC1c3c(cc(O)c(OC)c3-2)CCN1C
x2 = 0
Settings	mass density [kg/m3]
283.15 K	832.13
288.15 K	828.71
293.15 K	825.27
298.15 K	821.81
303.15 K	818.33
308.15 K	814.84
313.15 K	811.31
318.15 K	807.76
323.15 K	804.19
328.15 K	800.58
333.15 K	796.93

CCCCCO [pentan-1-ol] + COc1cc2c(cc1O)CC1c3c(cc(O)c(OC)c3-2)CCN1C
x2 = 0
Settings	mass density [kg/m3]
283.15 K	822.42
288.15 K	818.79
293.15 K	815.13
298.15 K	811.45
303.15 K	807.74
308.15 K	804.01
313.15 K	800.24
318.15 K	796.43
323.15 K	792.57
328.15 K	788.67
333.15 K	784.72

CCCO [propan-1-ol] + COc1cc2c(cc1O)CC1c3c(cc(O)c(OC)c3-2)CCN1C
x2 = 0
Settings	mass density [kg/m3]
283.15 K	811.57
288.15 K	807.62
293.15 K	803.63
298.15 K	799.62
303.15 K	795.58
308.15 K	791.49
313.15 K	787.37
318.15 K	783.22
323.15 K	779.01
328.15 K	774.73
333.15 K	770.39

CC(C)O [propan-2-ol] + COc1cc2c(cc1O)CC1c3c(cc(O)c(OC)c3-2)CCN1C
x2 = 0
Settings	mass density [kg/m3]
283.15 K	793.31
288.15 K	789.22
293.15 K	785.08
298.15 K	780.87
303.15 K	776.6
308.15 K	772.25
313.15 K	767.81
318.15 K	763.28
323.15 K	758.64
328.15 K	753.88
333.15 K	749.01
